Measurements published in patent US20100099762A1, “COMBINATION THERAPY” (THE MENTAL HEALTH RESEARCH INSTITUTE OF VICTORIA, priority 2006, published 2010).
Marks after values point to notes of the source that are not given here.

System: schizophrenia
Test: Randomised double blind multicentre placebo controlled trial of NAC in combination with an antipsychotic agent in schizophrenia
Format: in vivo, human
Description: There is preclinical evidence of a reduction in antioxidant defences in schizophrenia, particularly a reduction in glutathione, which is a primary endogenous antioxidant defence. N-acetyl cysteine (NAC) is a bioavailable precursor of glutathione. This Example is a randomised double blind multicentre placebo controlled trial of the use of NAC in combination with an antipsychotic agent in the treatment of schizophrenia. A total of 140 individuals were randomised to receive 2 g daily of NAC in two divided doses, or placebo, together with their normal dosage of antipsychotic agent.
Participants were assigned randomly and consecutively to treatment with NAC or placebo in a double blind fashion. The randomisation log was generated by an independent individual using the traditional coin tossing method. The investigators and clinicians remained blind until data analysis was completed. The person generating the randomisation schedule was not involved in participant interviews, either for participant eligibility or outcome measurements.
All participants remained on their usual antipsychotic medication for the duration of the trial. The dose of the primary therapy was monitored. Participants were recruited through advertisements, referral by case clinicians and through database screening. All participants provided written informed consent as part of complying with the protocol.
All randomised participants received two NAC (500 mg) capsules twice daily, to a total dose of 2 g daily, or matching placebo capsules. Human dosing can be up to 5 g/day without adverse effects (Louwerse E. S. et al., 1995). A daily dose that is within the range of efficacy in published clinical trials (Adair J. C. et al., 2001, Van Schooten F. J. et al., 2002, and Behr J, et al., 2002) was selected. Once per day dosing is desirable in the drug treatment of schizophrenia, where medication compliance is known to be a challenge in management. However, steady state plasma levels cannot be achieved with a once daily oral dose of NAC as the plasma half-life is only 2-3 hours (Holdiness M. R., 1991 and Kelly G. S., 1998). While a twice-daily (BID) dosing regimen would also not be expected to achieve steady state plasma levels, dose intervals beyond BID were considered to markedly increase the risk of non-compliance in this population.
To be included, the patients were required to meet Diagnostic and Statistical Manual of Mental Disorders, fourth edition (DSM-IV) (Association AP, 1994) criteria for schizophrenia and have a PANSS total score of ≧55, or at least two items in the positive and/or negative items being >3, or have a CGI-S≧3. They needed to have the capacity to consent to the study, and be aged between 18 and 65. Both inpatients and outpatients were eligible. Participants needed to be currently taking an antipsychotic agent and to be utilising effective contraception if female and of childbearing age. Exclusion criteria included patients with abnormal renal, hepatic, thyroid or haematological findings, patients with a systemic medical disorder including asthma, allergies or any history of bronchospasm, respiratory insufficiency and recent gastrointestinal ulcers and females who were positive on pregnancy screening testing at baseline. Participants who were taking a mood stabiliser (e.g. lithium, valproate and carbamazepine) were excluded as were those currently taking drugs that are known to prevent GSH depletion (500+mg of NAC/day, 200+ug of selenium/day or 500+IU of Vitamin E/day).
Withdrawal from the trial occurred if participants ceased taking their trial medication for seven consecutive days, or ceased effective contraception, or became pregnant. A change in primary antipsychotic from one medication to another required participants to be withdrawn from the study. Similarly, the addition of a mood stabiliser required withdrawal of the participant. Dose changes to existing medications were not an exclusion criterion, and this was monitored. […]

[1] = baseline to week 8, LOCF ANCOVA
[2] = baseline to week 24, LOCF ANCOVA
[3] = baseline to week 24, LOCF ANCOVA with treatment by investigator interaction
[4] = score at week 24, end of treatment

**Q.** `CC(=O)N[C@@H](CS)C(=O)O` [NAC, N-acetyl cysteine] was tested. Which “Number of patients with clinician-observed improvement (CGI-S), NAC group versus placebo group” value (16 weeks of treatment) did it give?
**A.** more than two-fold greater

**Q.** What about the “Range of CGI-S improvement from baseline in improved subjects” value (16 weeks of treatment) of the same molecule?
**A.** 1-3 points

**Q.** What about the “Effects on safety parameters, including vital signs, weight and clinical biochemistry values” (24 weeks NAC 2 g daily) of the same molecule?
**A.** no significant effects

**Q.** And the “GAF mean overall change from baseline to endpoint, NAC treatment group” value (ANCOVA, within-group)?
**A.** +4.5 points

**Q.** What about the “PANSS scales, NAC versus placebo over all visits” value (MMRM) of the same molecule?
**A.** did not detect a significant difference

**Q.** And the “PANSS-Negative items 3 and 6 over all visits” value (MMRM of individual items)?
**A.** significant (p<0.05) benefit

**Q.** And the “Individual PANSS items at specific visits” value (MMRM of individual items, weeks 2, 4, 8, 16, 20, 24)?
**A.** significant (p<0.05) improvements on several items

**Q.** What about the “GAF average improvement over all visits, NAC group” value (MMRM, within-group) of the same molecule?
**A.** +3.1 points

**Q.** And the “CGI-S: Within NAC Group Week 8 Mean Overall Change (95% CI)” value (NAC 2 g daily plus usual antipsychotic, baseline to week 8, LOCF ANCOVA)?
**A.** −0.32 (−0.48, −0.15)**

**Q.** And the “Mean gain in weight at week 24” value (NAC group, n=33)?
**A.** 0.394 kg

**Q.** What about the “Mean weight gain at week 8” value (NAC group, n=43) of the same molecule?
**A.** 1.372 kg

**Q.** What about the “Functioning as measured by the GAF scale or the SOFAS, between groups” value (NAC versus placebo) of the same molecule?
**A.** no between-group differences

**Q.** What about the “Effect size (Cohen's d statistic) on the BAS” value (after 24 weeks of NAC treatment) of the same molecule?
**A.** 0.44

**Q.** What about the “BAS: Within NAC Group Week 8 Mean Overall Change (95% CI)” value (akathisia, baseline to week 8, LOCF ANCOVA) of the same molecule?
**A.** −0.23 (−0.58, 0.11)

**Q.** And the “BAS: Within NAC Group Week 24 Mean Overall Change (95% CI)” value (akathisia, baseline to week 24, LOCF ANCOVA)?
**A.** −0.42 (−0.77, −0.06)*

**Q.** What about the “AIMS: Within NAC Group Week 8 Mean Overall Change (95% CI)” value [1] of the same molecule?
**A.** 0.08 (−0.48, 0.65)

**Q.** And the “GAF: Within NAC Group Week 8 Mean Overall Change (95% CI)” value [1]?
**A.** 2.7 (0.22, 5.3)*

**Q.** And the “PANSS General: Within NAC Group Week 8 Mean Overall Change (95% CI)” value [1]?
**A.** −1.7 (−3.2, −0.26)*

**Q.** And the “PANSS Negative: Within NAC Group Week 8 Mean Overall Change (95% CI)” value [1]?
**A.** −0.18 (−1.2, 0.82)

**Q.** What about the “PANSS Positive: Within NAC Group Week 8 Mean Overall Change (95% CI)” value [1] of the same molecule?
**A.** −1.6 (−2.6, −0.64)*

**Q.** What about the “PANSS Total: Within NAC Group Week 8 Mean Overall Change (95% CI)” value [1] of the same molecule?
**A.** −3.6 (−6.3, −0.90)*

**Q.** What about the “SAS: Within NAC Group Week 8 Mean Overall Change (95% CI)” value [1] of the same molecule?
**A.** −0.05 (−0.30, 0.21)

**Q.** And the “SOFAS: Within NAC Group Week 8 Mean Overall Change (95% CI)” value [1]?
**A.** −0.25 (−3.5, 3.0)

**Q.** And the “AIMS: Within NAC Group Week 24 Mean Overall Change (95% CI)” value [2]?
**A.** −0.44 (−1.03, 0.16)

**Q.** What about the “CGI-S: Within NAC Group Week 24 Mean Overall Change (95% CI)” value [2] of the same molecule?
**A.** −0.35 (−0.56, −0.14)*

**Q.** What about the “GAF: Within NAC Group Week 24 Mean Overall Change (95% CI)” value [2] of the same molecule?
**A.** 4.5 (1.5, 7.5)*

**Q.** What about the “PANSS Positive: Within NAC Group Week 24 Mean Overall Change (95% CI)” value [2] of the same molecule?
**A.** −2.3 (−3.49, −1.09)**

**Q.** What about the “SAS: Within NAC Group Week 24 Mean Overall Change (95% CI)” value [2] of the same molecule?
**A.** −0.17 (−0.46, 0.13)

**Q.** What about the “SOFAS: Within NAC Group Week 24 Mean Overall Change (95% CI)” value [2] of the same molecule?
**A.** −0.69 (−4.99, 3.6)

**Q.** And the “PANSS General: Within NAC Group Week 24 Mean Overall Change (95% CI)” value [3]?
**A.** −4.4 (−6.39, −2.48)^d**

**Q.** What about the “PANSS Negative: Within NAC Group Week 24 Mean Overall Change (95% CI)” value [3] of the same molecule?
**A.** −1.6 (−2.71, −0.46)^d

**Q.** And the “PANSS Total: Within NAC Group Week 24 Mean Overall Change (95% CI)” value [3]?
**A.** −8.8 (−12.2, −5.5)^d**

**Q.** What about the “Adverse events, NAC group compared to placebo group” value (checklist of 44 somatic items) of the same molecule?
**A.** No reported event was significantly more common

**Q.** What about the “Eye irritation, NAC treatment group compared to placebo” value (checklist of 44 somatic items) of the same molecule?
**A.** significantly less

**Q.** And the “SAS or AIMS scores, placebo versus NAC over all visits” value (over all visits)?
**A.** no significant differences

**Q.** What about the “CGI-I: Within NAC Group Week 8 Mean (95% CI)” value (score at that time point (no baseline score), week 8, NAC 2 g daily plus antipsychotic) of the same molecule?
**A.** 3.1 (2.9, 3.4)

**Q.** What about the “CGI-I: Within NAC Group Week 24 Mean (95% CI)” value (score at that time point (no baseline score), week 24) of the same molecule?
**A.** 2.9 (2.6, 3.1)

**Q.** And the “CGI-I: NAC Mean (95% CI) at post-treatment discontinuation” value (score at that time point, washout, week 28)?
**A.** 2.9 (2.5, 3.4)

**Q.** And the “AIMS: NAC Mean Week 24 (SD)” value [4]?
**A.** 2.2 (3.5)

**Q.** What about the “BAS: NAC Mean Week 24 (SD)” value [4] of the same molecule?
**A.** 0.42 (0.93)

**Q.** What about the “CGI-I: NAC Mean Week 24 (SD)” value [4] of the same molecule?
**A.** 2.9 (0.93)

**Q.** And the “CGI-S: NAC Mean Week 24 (SD)” value [4]?
**A.** 3.5 (1.0)

**Q.** And the “GAF: NAC Mean Week 24 (SD)” value [4]?
**A.** 54.4 (15.4)
